# According to article PMC9395446, “First-in-human phase 1/1b study to evaluate sitravatinib in patients with advanced solid tumors” (Investigational New Drugs, 2022):
# Assay: Safety in phase 1/1b study (DLTs, TRAEs, TEAEs; CTCAE v4.03)
# Format: in vivo, human
# Details: Overall
# Source text: Safety assessments included evaluation of DLTs, AEs, physical examinations, vital sign measurements, electrocardiogram recordings and laboratory tests.
# A DLT was defined as a grade ≥ 4 hematologic abnormality lasting ≥ 4 days; grade 3 thrombocytopenia with clinically significant bleeding; febrile neutropenia; clinically significant grade ≥ 3 non-hematologic AEs not related to underlying malignancy; intolerable grade 2 AEs; or toxicity resulting in an inability to deliver 80% of the dose during the first treatment cycle.
# The safety population included all patients who received ≥ 1 dose of sitravatinib. […] The PK evaluable population included all patients with sufficient concentration-time data for PK parameter evaluation. The modified intent-to-treat (mITT) population included all phase 1b patients who received ≥ 1 dose of study drug.
smiles,measurement,value
"COCCNCc1ccc(-c2cc3nccc(Oc4ccc(NC(=O)C5(C(=O)Nc6ccc(F)cc6)CC5)cc4F)c3s2)nc1 [sitravatinib, Sitravatinib]","AST increased TRAE, any grade",36 (18.7) n (%)
same,"AST increased TRAE, grade ≥3",2 (1.0) n (%)
same,"Abdominal pain TEAE, any grade",44 (22.8) n (%)
same,"Abdominal pain TEAE, grade ≥3",6 (3.1) n (%)
same,"Abdominal pain TRAE, any grade",22 (11.4) n (%)
same,"Abdominal pain TRAE, grade ≥3",0 n (%)
same,"Anemia TEAE, any grade",38 (19.7) n (%)
same,"Anemia TEAE, grade ≥3",12 (6.2) n (%)
same,Any TEAE,190 (98.4) n (%)
same,Any TRAE,174 (90.2) n (%)
same,"Asthenia TEAE, any grade",20 (10.4) n (%)
same,"Asthenia TEAE, grade ≥3",0 n (%)
same,"Back pain TEAE, any grade",32 (16.6) n (%)
same,"Back pain TEAE, grade ≥3",3 (1.6) n (%)
same,"Blood and lymphatic system disorders TEAE, any grade",50 (25.9) n (%)
same,"Blood and lymphatic system disorders TEAE, grade ≥3",20 (10.4) n (%)
same,"Blood creatinine increased TEAE, any grade",21 (10.9) n (%)
same,"Blood creatinine increased TEAE, grade ≥3",0 n (%)
same,"Cardiac disorders TEAE, any grade",24 (12.4) n (%)
same,"Cardiac disorders TEAE, grade ≥3",10 (5.2) n (%)
same,"Constipation TEAE, any grade",66 (34.2) n (%)
same,"Constipation TEAE, grade ≥3",0 n (%)
same,"Constipation TRAE, any grade",22 (11.4) n (%)
same,"Constipation TRAE, grade ≥3",0 n (%)
same,"Cough TEAE, any grade",34 (17.6) n (%)
same,"Cough TEAE, grade ≥3",0 n (%)
same,"Decreased appetite TEAE, any grade",74 (38.3) n (%)
same,"Decreased appetite TEAE, grade ≥3",4 (2.1) n (%)
same,"Decreased appetite TRAE, any grade",51 (26.4) n (%)
same,"Decreased appetite TRAE, grade ≥3",2 (1.0) n (%)
same,"Dehydration TEAE, any grade",36 (18.7) n (%)
same,"Dehydration TEAE, grade ≥3",5 (2.6) n (%)
same,"Diarrhea TEAE, any grade",116 (60.1) n (%)
same,"Diarrhea TEAE, grade ≥3",25 (13.0) n (%)
same,"Diarrhea TRAE, any grade",98 (50.8) n (%)
same,"Diarrhea TRAE, grade ≥3",20 (10.4) n (%)
same,"Dizziness TEAE, any grade",34 (17.6) n (%)
same,"Dizziness TEAE, grade ≥3",0 n (%)
same,"Dizziness TRAE, any grade",20 (10.4) n (%)
same,"Dizziness TRAE, grade ≥3",0 n (%)
same,"Dry mouth TEAE, any grade",28 (14.5) n (%)
same,"Dry mouth TEAE, grade ≥3",0 n (%)
same,"Dry mouth TRAE, any grade",21 (10.9) n (%)
same,"Dry mouth TRAE, grade ≥3",0 n (%)
same,"Dysphonia TEAE, any grade",47 (24.4) n (%)
same,"Dysphonia TEAE, grade ≥3",0 n (%)
same,"Dysphonia TRAE, any grade",27 (14.0) n (%)
same,"Dysphonia TRAE, grade ≥3",0 n (%)
same,"Dyspnea TEAE, any grade",31 (16.1) n (%)
same,"Dyspnea TEAE, grade ≥3",6 (3.1) n (%)
same,"Edema peripheral TEAE, any grade",29 (15.0) n (%)
same,"Edema peripheral TEAE, grade ≥3",1 (0.5) n (%)
same,"Endocrine disorders TEAE, any grade",53 (27.5) n (%)
same,"Endocrine disorders TEAE, grade ≥3",2 (1.0) n (%)
same,"Fatigue TEAE, any grade",98 (50.8) n (%)
same,"Fatigue TEAE, grade ≥3",19 (9.8) n (%)
same,"Fatigue TRAE, any grade",83 (43.0) n (%)
same,"Fatigue TRAE, grade ≥3",14 (7.3) n (%)
same,"Gastrointestinal disorders TEAE, any grade",167 (86.5) n (%)
same,"Gastrointestinal disorders TEAE, grade ≥3",49 (25.4) n (%)
same,"General disorders and administration site conditions TEAE, any grade",131 (67.9) n (%)
same,"General disorders and administration site conditions TEAE, grade ≥3",23 (11.9) n (%)
same,"Headache TEAE, any grade",40 (20.7) n (%)
same,"Headache TEAE, grade ≥3",2 (1.0) n (%)
same,"Hypertension TEAE, any grade",88 (45.6) n (%)
same,"Hypertension TEAE, grade ≥3",47 (24.4) n (%)
same,"Hypertension TRAE, any grade",78 (40.4) n (%)
same,"Hypertension TRAE, grade ≥3",40 (20.7) n (%)
same,"Hypokalemia TEAE, any grade",20 (10.4) n (%)
same,"Hypokalemia TEAE, grade ≥3",3 (1.6) n (%)
same,"Hypomagnesemia TEAE, any grade",24 (12.4) n (%)
same,"Hypomagnesemia TEAE, grade ≥3",0 n (%)
same,"Hyponatremia TEAE, any grade",25 (13.0) n (%)
same,"Hyponatremia TEAE, grade ≥3",11 (5.7) n (%)
same,"Hypophosphatemia TEAE, any grade",20 (10.4) n (%)
same,"Hypophosphatemia TEAE, grade ≥3",11 (5.7) n (%)
same,"Hypothyroidism TEAE, any grade",47 (24.4) n (%)
same,"Hypothyroidism TEAE, grade ≥3",0 n (%)
same,"Hypothyroidism TRAE, any grade",33 (17.1) n (%)
